Measurements as given in ChEMBL document CHEMBL5614464, “Geldanamycin, a Naturally Occurring Inhibitor of Hsp90 and a Lead Compound for Medicinal Chemistry” (J Med Chem, 2024).

Key:
[1] = Inhibition of recombinant HSP90 (unknown origin); parameters: species or system Homo sapiens
[2] = system: PC-3; experiment: Antiproliferative activity against human PC-3 cells assessed as reduction in cell viability incubated for 48 hrs by MTT assay; assay type: functional, cell-based; conditions: PC-3, 48 h
[3] = system: SK-OV-3; experiment: Antiproliferative activity against human SK-OV-3 cells assessed as reduction in cell viability incubated for 48 hrs by MTT assay; assay type: functional, cell-based; conditions: SK-OV-3, 48 h

Row | SMILES | IC50 [1] [nM] | IC50 [2] [nM] | IC50 [3] [nM]
1 | CO[C@H]1/C=C\C=C(/C)C(=O)NC2=CC(=O)C(c3ccccc3)=C(C[C@@H](C)C[C@H](OC)[C@H](O)[C@@H](C)/C=C(\C)[C@@H]1OC(N)=O)C2=O | 1700 | – | –
2 | COC1=C2C[C@@H](C)C[C@H](OC)[C@H](O)[C@@H](C)/C=C(\C)[C@H](OC(N)=O)[C@@H](OC)/C=C\C=C(/C)C(=O)NC(=CC1=O)C2=O [GELDANAMYCIN] | – | 580 | 580
